US20230011869A1 (Hoffmann-La Roche Inc., priority 2018, published 2023)
Counter-ions that a name gives are not always drawn. Like-named read-outs stand apart in the source and are kept apart here.

Test system: Acinetobacter baumannii ATCC17978
Assay: Antimicrobial susceptibility testing: 90% growth inhibitory concentration (IC90) determination, Iso-Sensitest broth
Assay type: cell-based
Method in brief: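 A. baumannii ATCC17978 grown in Iso-Sensitest broth across 10 compound concentrations at 35±2 °C.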

[1] = 90% growth inhibitory concentration, Acinetobacter baumannii ATCC17978, Iso-Sensitest broth, OD 600 nm over 16 h, read-out: ATCC17978 IC90

IC90 [1]	Compound	IC90 (Acinetobacter baumannii, ATCC17978, 16 h, read-out: ATCC17978 IC90, 90% growth inhibitory concentration, Acinetobacter baumannii ATCC17978, Iso-Sensitest broth, OD 600 nm over 16 h)
290 nM	COc1ccc(-c2cnc3c(Nc4ccc(C(=O)N5CCN(C(=O)[C@@H]6CCNC[C@H]6O)CC5)c(C)c4)nccn23)c(F)c1F [Example 193, [4-[[3-(2,3-difluoro-4-methoxy-phenyl)imidazo[1,2-a]pyrazin-8-yl]amino]-2-methyl-phenyl]-[4-[(3S,4R)-3-hydroxypiperidine-4-carbonyl]piperazin-1-yl]methanone hydrochloride]	–
290 nM	CCc1cc(Nc2nccn3c(-c4ccc(OCC#N)c(F)c4F)cnc23)ccc1C(=O)N1CCN(C(=O)C2CCNCC2)CC1 [Example 194, 2-[4-[8-[3-ethyl-4-[4-(piperidine-4-carbonyl)piperazine-1-carbonyl]anilino]imidazo [1,2-a]pyrazin-3-yl]-2,3-difluoro-phenoxy]acetonitrile formate]	–
100 nM	Cc1cc(Nc2nccn3c(-c4ccc(OCC#N)c(F)c4F)cnc23)ccc1C(=O)N1CCN(C(=O)[C@H]2CCNC2)CC1 [Example 201, 2-[2,3-difluoro-4-[8-[3-methyl-4-[4-[(3S)-pyrrolidine-3-carbonyl]piperazine-1-carbonyl]anilino]imidazo[1,2-a]pyrazin-3-yl]phenoxy] acetonitrile; formic acid]	–
93 nM	COc1ccc(-c2cnc3c(Nc4ccc(C(=O)N5CCN(C(=O)[C@@H]6CCNC6)CC5)c(C)c4)nccn23)c(F)c1F [Example 202, (R)-(4-(4-((3-(2,3-difluoro-4-methoxyphenyl)imidazo[1,2-a]pyrazin-8-yl)amino)-2-methylbenzoyl)piperazin-1-yl) (pyrrolidin-3-yl)methanone hydrochloride]	–
190 nM	COc1ccc(-c2cnc3c(Nc4ccc(C(=O)N5CCN(C(=O)C6CNC6)CC5)c(C)c4)nccn23)c(F)c1F [Example 203, [4-(azetidine-3-carbonyl)piperazin-1-yl]-[4-[[3-(2,3-difluoro-4-methoxy-phenyl)imidazo[1,2-a]pyrazin-8-yl]amino]-2-methyl-phenyl]methanone; hydrochloride]	–
110 nM	COc1ccc(-c2cnc3c(Nc4ccc(C(=O)N5CCN(C(=O)C6C7CCC6CNC7)CC5)c(C)c4)nccn23)c(F)c1F (stereo not shown) [Example 205, [4-(3-azabicyclo[3.2.1]octane-8-carbonyl)piperazin-1-yl]-[4-[[3-(2,3-difluoro-4-methoxy-phenyl)imidazo[1,2-a]pyrazin-8-yl]amino]-2-methyl-phenyl]methanone hydrochloride]	–
170 nM	Cc1cc(Nc2nccn3c(-c4ccc(OCC#N)c(F)c4Cl)cnc23)ccc1C(=O)N1CCC(C(=O)N2CCNC[C@@H]2CO)CC1 [Example 207, 2-[3-chloro-2-fluoro-4-[8-[4-[4-[(2R)-2-(hydroxymethyl)piperazine-1-carbonyl]piperidine-1-carbonyl]-3-methyl-anilino]imidazo[1,2-a]pyrazin-3-yl]phenoxy] acetonitrile]	–
160 nM	Cc1cc(Nc2nccn3c(-c4ccc(OCC#N)c(F)c4Cl)cnc23)ccc1C(=O)N1CCC(C(=O)N2CCNC[C@H]2CO)CC1 [Example 208, 2-[3-chloro-2-fluoro-4-[8-[4-[4-[(2S)-2-(hydroxymethyl)piperazine-1-carbonyl]piperidine-1-carbonyl]-3-methyl-anilino]imidazo[1,2-a]pyrazin-3-yl]phenoxy] acetonitrile formate]	–
94 nM	COc1ccc(-c2cnc3c(Nc4ccc(C(=O)N5CCN(C(=O)[C@H]6CCNC6)CC5)c(C)c4)nccn23)c(Cl)c1F [Example 210, [4-[[3-(2-chloro-3-fluoro-4-methoxy-phenyl)imidazo[1,2-a]pyrazin-8-yl]amino]-2-methyl-phenyl]-[4-[(3S)-pyrrolidine-3-carbonyl]piperazin-1-yl]methanone formate]	–
150 nM	COc1ccc(-c2cnc3c(Nc4ccc(C(=O)N5CCN(C(=O)C6(O)CCNCC6)CC5)c(C)c4)nccn23)c(Cl)c1F [Example 215, [4-[[3-(2-chloro-3-fluoro-4-methoxy-phenyl)imidazo[1,2-a]pyrazin-8-yl]amino]-2-methyl-phenyl]-[4-(4-hydroxypiperidine-4-carbonyl)piperazin-1-yl]methanone formate]	–
190 nM	COc1ccc(-c2cnc3c(Nc4ccc(C(=O)N5CCN(C(=O)[C@@H]6CCNC[C@H]6O)CC5)c(C)c4)nccn23)c(Cl)c1F [Example 216, [4-[[3-(2-chloro-3-fluoro-4-methoxy-phenyl)imidazo[1,2-a]pyrazin-8-yl]amino]-2-methyl-phenyl]-[4-[(3S,4R)-3-hydroxypiperidine-4-carbonyl]piperazin-1-yl]methanone formate]	–
280 nM	COc1ccc(-c2cnc3c(Nc4ccc(C(=O)N5CCN(C(=O)[C@H]6CCNC[C@H]6O)CC5)c(C)c4)nccn23)c(Cl)c1F [Example 217, [4-[[3-(2-chloro-3-fluoro-4-methoxy-phenyl)imidazo[1,2-a]pyrazin-8-yl]amino]-2-methyl-phenyl]-[4-[(3S,4S)-3-hydroxypiperidine-4-carbonyl]piperazin-1-yl]methanone]	–
220 nM	COc1ccc(-c2cnc3c(Nc4ccc(C(=O)N5CCN(C(=O)[C@H]6CCNC[C@@H]6O)CC5)c(C)c4)nccn23)c(Cl)c1F [Example 219, [4-[[3-(2-chloro-3-fluoro-4-methoxy-phenyl)imidazo[1,2-a]pyrazin-8-yl]amino]-2-methyl-phenyl]-[4-[(3R,4S)-3-hydroxypiperidine-4-carbonyl]piperazin-1-yl]methanone formate]	–
180 nM	CNCC(=O)N1CCN(C(=O)c2ccc(Nc3nccn4c(-c5ccc(OC)c(F)c5)cnc34)cc2C)CC1 [Example 224, 1-(4-(4-((3-(3-fluoro-4-methoxyphenyl)imidazo[1,2-a]pyrazin-8-yl)amino)-2-methylbenzoyl)piperazin-1-yl)-2-(methylamino) ethanone hydrochloride]	–
260 nM	Cc1cc(Nc2nccn3c(-c4ccc(OC(F)F)cc4)cnc23)ccc1C(=O)N1CCN(C(=O)CCNC(=N)N)CC1 [Example 225, 1-(3-(4-(4-((3-(4-(difluoromethoxy)phenyl)imidazo[1,2-a]pyrazin-8-yl)amino)-2-methylbenzoyl)piperazin-1-yl)-3-oxopropyl)guanidine]	–
520 nM	Cc1cc(Nc2nccn3c(-c4ccc(OC(F)F)cc4)cnc23)ccc1C(=O)N1CCN(C(=O)[C@H](C)N)CC1 [Example 226, (2S)-2-amino-1-[4-[4-[[3-4-(difluoromethoxy)phenyl]imidazo[1,2-a]pyrazin-8-yl]amino]-2-methyl-benzoyl]piperazin-1-yl]propan-1-one hydrochloride]	–
63 nM	Cc1cc(Nc2nccn3c(-c4ccc(OCC#N)c(F)c4F)cnc23)ccc1C(=O)N1CCN(C(=O)[C@@H]2C[C@](C)(O)CN2)CC1 [Example 230, 2-[2,3-difluoro-4-[8-[4-[4-[(2S,4S)-4-hydroxy-4-methyl-pyrrolidine-2-carbonyl]piperazine-1-carbonyl]-3-methyl-anilino]imidazo[1,2-a]pyrazin-3-yl]phenoxy] acetonitrile formate]	–
83 nM	CC[C@]1(O)CN[C@H](C(=O)N2CCN(C(=O)c3ccc(Nc4nccn5c(-c6ccc(OCC#N)c(F)c6F)cnc45)cc3C)CC2)C1 [Example 232, 2-[4-[8-[4-[4-[(2S,4R)-4-ethyl-4-hydroxy-pyrrolidine-2-carbonyl]piperazine-1-carbonyl]-3-methyl-anilino]imidazo[1,2-a]pyrazin-3-yl]-2,3-difluoro-phenoxy]acetonitrile formate]	–
370 nM	Cc1cc(Nc2nccn3c(-c4ccc(OC(C)C#N)c(F)c4F)cnc23)ccc1C(=O)N1CCN(CCCN(C)C)CC1 (stereo not shown) [Example 237, 2-[4-[8-[4-[4-[3-(dimethylamino)pro-pyl]piperazine-1-carbonyl]-3-methyl-anilino]imidazo[1,2-a]pyrazin-3-yl]-2,3-difluoro-phenoxy]propanenitrile formate]	–
210 nM	Cc1cc(Nc2nccn3c(-c4ccc(OC(C)C#N)c(F)c4F)cnc23)ccc1C(=O)N1CCN(CCN(C)C)CC1 (stereo not shown) [Example 238, 2-[4-[8-[4-[4-[2-(dimethylamino)ethyl]piperazine-1-carbonyl]-3-methyl-anilino]imidazo[1,2-a]pyrazin-3-yl]-2,3-difluoro-phenoxy]propanenitrile; 2,2,2-trifluoroacetic acid]	–
–	Cc1cc(Nc2nccn3c(-c4ccc(O[C@H](C)C#N)c(F)c4F)cnc23)ccc1C(=O)N1CCN(CCN(C)C)CC1 [Example 239, (2R)-2-[4-[8-[4-[4-[2-(dimethylamino)ethyl]piperazine-1-carbonyl]-3-methyl-anilino]imidazo[1,2-a]pyrazin-3-yl]-2,3-difluoro-phenoxy]propanenitrile formate]	790 nM
110 nM	Cc1cc(Nc2nccn3c(-c4ccc(O[C@@H](C)C#N)c(F)c4F)cnc23)ccc1C(=O)N1CCN(CCN(C)C)CC1 [Example 240, ((2S)-2-[4-[8-[4-[4-[2-(dimethylamino)ethyl]piperazine-1-carbonyl]-3-methyl-anilino]imidazo[1,2-a]pyrazin-3-yl]-2,3-difluoro-phenoxy]propanenitrile formate]	–
2200 nM	CCc1cc(Nc2nccn3c(-c4ccc(OC)c(F)c4)cnc23)ccc1C(=O)N1CCC(C(=O)O)CC1 [Example 241, 1-(2-Ethyl-4-((3-(3-fluoro-4-methoxyphenyl)imidazo[1,2-a]pyrazin-8-yl)amino)benzoyl)piperidine-4-carboxylic acid]	–
170 nM	CNCCCNC(=O)C1CCN(C(=O)c2ccc(Nc3nccn4c(-c5ccc(OCC#N)c(F)c5F)cnc34)cc2C)CC1 [Example 242, 1-(4-((3-(4-(cyanomethoxy)-2,3-difluorophenyl)imidazo[1,2-a]pyrazin-8-yl)amino)-2-methylbenzoyl)-N-(3-(methylamino)propyl)piperidine-4-carboxamide]	–
120 nM	Cc1cc(Nc2nccn3c(-c4ccc(OC(F)F)cc4)cnc23)ccc1C(=O)N1CCN(C(=O)Nc2ccncc2)CC1 [Example 245, 4-[4-[[3-[4-(difluoromethoxy)phenyl]imidazo[1,2-a]pyrazin-8-yl]amino]-2-methyl-benzoyl]-N-(4-pyridyl)piperazine-1-carboxamide]	–
